# Read-outs that look alike come from different tables or passages of the source.
# Target: T1, IRAK4 (Homo sapiens, UniProt Q9NWZ3)
# T1 construct: endogenous in cells; host or cells: Karpas299
# T1 sequence (Q9NWZ3 1-460): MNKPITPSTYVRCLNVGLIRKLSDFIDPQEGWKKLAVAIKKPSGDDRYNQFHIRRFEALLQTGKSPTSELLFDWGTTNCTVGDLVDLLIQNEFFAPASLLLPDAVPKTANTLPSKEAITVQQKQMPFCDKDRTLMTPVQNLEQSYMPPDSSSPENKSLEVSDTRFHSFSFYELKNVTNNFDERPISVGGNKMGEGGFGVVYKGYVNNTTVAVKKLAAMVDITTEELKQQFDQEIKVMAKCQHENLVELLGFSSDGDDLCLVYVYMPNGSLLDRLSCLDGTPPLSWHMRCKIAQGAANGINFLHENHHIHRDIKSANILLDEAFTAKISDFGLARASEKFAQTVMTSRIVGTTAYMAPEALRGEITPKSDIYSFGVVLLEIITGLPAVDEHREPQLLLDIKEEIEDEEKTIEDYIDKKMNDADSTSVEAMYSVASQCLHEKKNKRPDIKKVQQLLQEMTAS
# Assay: IRAK4 Degradation Assay (Karpas299, HTRF/TR-FRET)
# Assay type: cell-based
# Procedure, shortened: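 Karpas299 cells at 0.2 million per well were exposed to serially diluted compounds for 24 h or 5 h, then lysed. IRAK4 remaining in lysates was quantified by HTRF (665/620 nm) after overnight antibody incubation at room temperature. Percent degradation was fitted to a four-parameter curve to give IC50 (DC50).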
# [1] = Karpas-299 cells, 24 h treatment, maximum percentage of degradation, read-out: IRAK4 in Karpas-299 (24 h) Dmax (%)
# [2] = Karpas-299 cells, 24 h treatment, read-out: IRAK4 in Karpas-299 (24 h) DC50
# [3] = Degradation (Karpas-299), comparison table, Linker Type B, read-out: Compound (Linker Type B) DC50
# [4] = Degradation (Karpas-299), comparison table, Linker Type B, read-out: Compound (Linker Type B) Dmax (%)
# [5] = Karpas-299 cells, 5 h treatment, maximum percentage of degradation, read-out: IRAK4 in Karpas-299 (5 h) Dmax (%)
# [6] = Karpas-299 cells, 5 h treatment, read-out: IRAK4 in Karpas-299 (5 h) DC50
# [7] = Degradation (Karpas-299), comparison table, Linker Type A, read-out: Compound (Linker Type A) DC50
# [8] = Degradation (Karpas-299), comparison table, Linker Type A, read-out: Compound (Linker Type A) Dmax (%)
Dmax [1],DC50 [2],DC50 [3],Dmax [4],Dmax [5],DC50 [6],DC50 [7],Dmax [8],SMILES
70%,3.4 nM,–,–,–,–,–,–,"O=C1CCN(c2ccc(N3CC[C@@H](C(=O)N4CCN([C@H]5CC[C@H](n6cc(NC(=O)c7coc(-c8ccnc(NCC(F)(F)F)c8)n7)c(C(F)F)n6)CC5)CC4)C3)cc2)C(=O)N1 [Example 14, N-(3-(difluoromethyl)-1-((1R,4r)-4-(4-((R)-1-(4-(2,4-dioxotetrahydropyrimidin-1(2H)-yl)phenyl)pyrrolidine-3-carbonyl)piperazin-1-yl)cyclohexyl)-1H-pyrazol-4-yl)-2-(2-((2,2,2-trifluoroethyl)amino)pyridin-4-yl)oxazole-4-carboxamide]"
97%,2 nM,2 nM,97%,–,–,–,–,"COc1cc2nn([C@H]3CC[C@H](N4CCN(C(=O)[C@@H]5CCN(c6ccc(N7CCC(=O)NC7=O)cc6)C5)CC4)CC3)cc2cc1NC(=O)c1cccc(C(F)(F)F)n1 [Example 164, N-(2-((1R,4r)-4-(4-((R)-1-(4-(2,4-dioxotetrahydropyrimidin-1(2H)-yl)phenyl)pyrrolidine-3-carbonyl)piperazin-1-yl)cyclohexyl)-6-methoxy-2H-indazol-5-yl)-6-(trifluoromethyl)picolinamide]"
11%,> 10000 nM,–,–,–,–,> 10000 nM,11%,"COc1cc2nn([C@H]3CC[C@H](CN4CCN(C(=O)[C@H]5CC[C@H](Oc6ccc(N7CCC(=O)NC7=O)cc6)CC5)CC4)CC3)cc2cc1NC(=O)c1cccc(C(F)(F)F)n1 [Example 6, N-(2-((1R,4r)-4-((4-((1r,4R)-4-(4-(2,4-dioxotetrahydropyrimidin-1(2H)-yl)phenoxy)cyclohexane-1-carbonyl)piperazin-1-yl)methyl)cyclohexyl)-6-methoxy-2H-indazol-5-yl)-6-(trifluoromethyl)picolinamide]"
89%,15 nM,–,–,–,–,15 nM,89%,"COc1cc2nn([C@H]3CC[C@H](CN4CCN(C(=O)[C@@H]5CCN(c6ccc(N7CCC(=O)NC7=O)cc6)C5)CC4)CC3)cc2cc1NC(=O)c1cccc(C(F)(F)F)n1 [Example 36, N-(2-((1R,4r)-4-((4-((R)-1-(4-(2,4-dioxotetrahydropyrimidin-1(2H)-yl)phenyl)pyrrolidine-3-carbonyl)piperazin-1-yl)methyl)cyclohexyl)-6-methoxy-2H-indazol-5-yl)-6-(trifluoromethyl)picolinamide]"
99%,0.9 nM,–,–,89%,23 nM,–,–,"CC(C)(O)c1cc2nn([C@H]3CC[C@H](N4CCN(C(=O)C5CN(c6ccc(N7CCC(=O)NC7=O)cc6)C5)CC4)CC3)cc2cc1NC(=O)c1cccc(C(F)(F)F)n1 [Example 40, N-(2-((1r,4r)-4-(4-(1-(4-(2,4-dioxotetrahydropyrimidin-1(2H)-yl)phenyl)azetidine-3-carbonyl)piperazin-1-yl)cyclohexyl)-6-(2-hydroxypropan-2-yl)-2H-indazol-5-yl)-6-(trifluoromethyl)picolinamide]"
66%,137 nM,–,–,–,–,137 nM,66%,"COc1cc2nn([C@H]3CC[C@H](CN4CCN(C(=O)C5CCN(c6ccc(N7CCC(=O)NC7=O)cc6)CC5)CC4)CC3)cc2cc1NC(=O)c1cccc(C(F)(F)F)n1 [Example 7, N-(2-((1r,4r)-4-((4-(1-(4-(2,4-dioxotetrahydropyrimidin-1(2H)-yl)phenyl)piperidine-4-carbonyl)piperazin-1-yl)methyl)cyclohexyl)-6-methoxy-2H-indazol-5-yl)-6-(trifluoromethyl)picolinamide]"

# Further lines, the compound ahead of its results:
SMILES,Dmax [1],DC50 [2],DC50 [3],Dmax [4],Dmax [5],DC50 [6],DC50 [7],Dmax [8]
"O=C1CC[C@H](c2c(F)cc(N3CC(C(=O)N4CCN([C@H]5CC[C@H](n6cc(NC(=O)c7coc(-c8ccnc(NCC(F)(F)F)c8)n7)c(C(F)F)n6)CC5)CC4)C3)cc2F)C(=O)N1 [Example 16, N-(3-(difluoromethyl)-1-((1r,4r)-4-(4-(1-(4-((R)-2,6-dioxopiperidin-3-yl)-3,5-difluorophenyl)azetidine-3-carbonyl)piperazin-1-yl)cyclohexyl)-1H-pyrazol-4-yl)-2-(2-((2,2,2-trifluoroethyl)amino)pyridin-4-yl)oxazole-4-carboxamide]",98%,0.67 nM,0.67 nM,98%,96%,5.7 nM,–,–
"O=C1CCN(c2ccc(N3CCC(N4CCN([C@H]5CC[C@H](n6cc(NC(=O)c7coc(-c8ccnc(NCC(F)(F)F)c8)n7)c(C(F)F)n6)CC5)CC4)C3)cc2)C(=O)N1 (stereo partly drawn) [Example 21, N-(3-(difluoromethyl)-1-((1r,4r)-4-(4-(1-(4-(2,4-dioxotetrahydropyrimidin-1(2H)-yl)phenyl)pyrrolidin-3-yl)piperazin-1-yl)cyclohexyl)-1H-pyrazol-4-yl)-2-(2-((2,2,2-trifluoroethyl)amino)pyridin-4-yl)oxazole-4-carboxamide]",98%,4.4 nM,–,–,–,–,–,–
"O=C1CCN(c2ccc(N3CC[C@H](C(=O)N4CCN([C@H]5CC[C@H](n6cc(NC(=O)c7coc(-c8ccnc(NCC9CC9)c8)n7)c(C(F)F)n6)CC5)CC4)C3)cc2)C(=O)N1 [Example 22, 2-(2-((cyclopropylmethyl)amino)pyridin-4-yl)-N-(3-(difluoromethyl)-1-((1S,4r)-4-(4-((S)-1-(4-(2,4-dioxotetrahydropyrimidin-1(2H)-yl)phenyl)pyrrolidine-3-carbonyl)piperazin-1-yl)cyclohexyl)-1H-pyrazol-4-yl)oxazole-4-carboxamide]",90%,6.8 nM,–,–,–,–,–,–
"O=C1CCN(c2c(F)cc(N3CC[C@H](C(=O)N4CCN([C@H]5CC[C@H](n6cc(NC(=O)c7cnn(-c8ccnc(NCC9CC9)c8)n7)c(C(F)F)n6)CC5)CC4)C3)cc2F)C(=O)N1 [Example 63, 2-(2-((cyclopropylmethyl)amino)pyridin-4-yl)-N-(3-(difluoromethyl)-1-((1S,4r)-4-(4-((S)-1-(4-(2,4-dioxotetrahydropyrimidin-1(2H)-yl)-3,5-difluorophenyl)pyrrolidine-3-carbonyl)piperazin-1-yl)cyclohexyl)-1H-pyrazol-4-yl)-2H-1,2,3-triazole-4-carboxamide]",95%,15 nM,–,–,–,–,–,–
"COc1cc2nn(C3CCN(C(=O)[C@H]4CC[C@H](Oc5ccc(C6CCC(=O)NC6=O)cc5)CC4)CC3)cc2cc1NC(=O)c1cccc(C(F)(F)F)n1 (stereo partly drawn) [Example 35, N-(2-(1-((1r,4r)-4-(4-(2,6-dioxopiperidin-3-yl)phenoxy)cyclohexane-1-carbonyl)piperidin-4-yl)-6-methoxy-2H-indazol-5-yl)-6-(trifluoromethyl)picolinamide]",10%,> 10000 nM,–,–,–,–,> 10000 nM,10%
"O=C1CCC(c2ccc(N3CC(C(=O)N4CCN([C@H]5CC[C@H](n6cc(NC(=O)c7coc(-c8ccnc(NCC(F)(F)F)c8)n7)c(C(F)F)n6)CC5)CC4)C3)cc2)C(=O)N1 (stereo partly drawn) [Example 175, N-(3-(difluoromethyl)-1-((1r,4r)-4-(4-(1-(4-(2,6-dioxopiperidin-3-yl)phenyl)azetidine-3-carbonyl)piperazin-1-yl)cyclohexyl)-1H-pyrazol-4-yl)-2-(2-((2,2,2-trifluoroethyl)amino)pyridin-4-yl)oxazole-4-carboxamide]",100%,1.7 nM,–,–,88%,12 nM,–,–
"COc1cc2nn(C3CCN(C4CN(C(=O)C5CN(c6cc(F)c([C@H]7CCC(=O)NC7=O)c(F)c6)C5)C4)CC3)cc2cc1NC(=O)c1cccc(C(F)(F)F)n1 [Example 41, (R)—N-(2-(1-(1-(1-(4-(2,6-dioxopiperidin-3-yl)-3,5-difluorophenyl)azetidine-3-carbonyl)azetidin-3-yl)piperidin-4-yl)-6-methoxy-2H-indazol-5-yl)-6-(trifluoromethyl)picolinamide]",95%,1.1 nM,–,–,–,–,–,–
"O=C1CC[C@H](c2c(F)cc(N3CC[C@@H](C(=O)N4CCN([C@H]5CC[C@H](n6cc7cc(NC(=O)c8cccc(C(F)(F)F)n8)c(C(=O)N[C@H]8C[C@H](CO)C8)cc7n6)CC5)CC4)C3)cc2F)C(=O)N1 [Example 168, 2-((1R,4R)-4-(4-((R)-1-(4-((R)-2,6-dioxopiperidin-3-yl)-3,5-difluorophenyl)pyrrolidine-3-carbonyl)piperazin-1-yl)cyclohexyl)-N-((1r,3R)-3-(hydroxymethyl)cyclobutyl)-5-(6-(trifluoromethyl)picolinamido)-2H-indazole-6-carboxamide]",100%,1.3 nM,–,–,87%,5.2 nM,–,–
